A short description of data set [1]: isolated perfused respiring rat lung (IPRLu) model, intratracheal instillation. Conditions: for recovery at 20 min / half-life: male, CD, rat, 100 μL, pH 7.4; for recovery at 20 min: isolated perfused respiring rat lung (IPRLu), lungs in situ; for %SDiP: solubilised dose in perfusate at 20 mins; for %TDiP: total dose in perfusate at 20 mins. On the procedure:
The IPRLu model, including surgery, dosing and sample collection, was performed by the Laboratory Animal Sciences department at GSK. Methodology was based on that described by Tronde et al. (23;24) but with lungs remaining in situ and intratracheal instillation as the dosing technique. Prior to surgery male CD rats were anaesthetised with intraperitoneal ketamine and medetomidine (Dormitor^TM) at […] and 0.5 ml/kg respectively. In addition, 50U of heparin was administered intravenously via a tail vein. Following confirmation of anaesthesia, the front of the rib cage was removed to access heart and lungs, and the trachea cannulated and secured with a ligature. Respiration was transferred to a positive pressure small animal ventilator (Harvard Apparatus Ltd, Edenbridge, Kent, UK) and maintained at 40 breaths per minute with a tidal volume of 1.8 ml. Following exsanguination, the pulmonary artery and vein were cannulated through incisions in the right and left ventricles in order to isolate the blood pulmonary circulatory system. The rat was then raised and maintained at an angle of 45° using a custom made elevating chamber similar to that described by Brain et al. ([26]). […] After an initial first pass to flush blood from the lung vasculature, the perfusion buffer was then recirculated for approximately 10 minutes to equilibrate and attain the required flow rate. Lungs were visually inspected for leaks and signs of oedema ([27]). Compounds were administered either discretely or co-formulated (2–4 compounds) and experiments were carried out in duplicate. Doses (100 μL) were administered to the trachea slightly above the bifurcation point by introduction of a 50 mm needle Hamilton syringe into the tracheal cannula followed by 3 x 1 ml of air. The tracheal cannula was then reattached to the ventilator and total perfusate was collected over 1 min intervals for 20 mins. Perfusate aliquots (1 ml) were frozen (-20°C) along with terminal lung samples prior to analysis.
Homogenised lung and perfusate samples underwent protein precipitation by addition of a 3-fold excess of acetonitrile containing an internal standard. Following either filtration or centrifugation the resulting filtrate or supernatant was typically dried down under a nitrogen stream and then reconstituted in the mobile phase used for separation by HPLC. Following sample preparation lung and perfusate samples, along with residual dose formulations (pre- and post-centrifugation) were analysed by HPLC tandem mass spectrometry (LC-MS/MS), typically using a generic reverse phase chromatography gradient method with separation on a C18 column (50 x 2.1 mm, 3 μm) and an acidified mobile phase.
The cumulative amount of parent compound crossing the lung into the perfusate by the end of the 20 minute experiment was expressed as % of the total dose or as % of the dose originally in solution (solubilised dose). The relative rate of absorption across the lungs was also calculated, the percentage of the administered dose remaining in the lungs was plotted semilogarithimically against time and the initial rate of absorption expressed as a half-life.

Data set [2] is described as follows: % of dose in solution in the dose formulation (dose analysis pre- and post-centrifugation). It is filed as physicochemical. The conditions noted are these: aqueous dose formulation. From the text: All compounds were formulated in an aqueous vehicle, the majority (79%) containing 0.2% Tween 80 in either water or saline. Due to the diverse nature of the molecules investigated, formulations were a mix of solutions and suspensions ranging from <1 to 100% compound in solution. Compound solubility effects were investigated using a tool compound available in three micronised salt forms with varying solubilities. The free base (FB), hydroxynapthoate (HNA) and hydrochloride (HCl) forms were each administered to the IPRLu model at a dose equivalent to 15 μg free base.
Data generated with the IPRLu model on 17 marketed drugs (14 out of 17 designed for inhaled delivery) are shown in Table I. All the compounds display a moderate to high extent of total dose in the perfusate at 20 minutes (10–100%), in keeping with the in-house observation that compounds displaying < <10% carry a high risk of accumulation in the lung upon repeat dosing, which can lead to developability issues and high attrition rates. The marketed compound set can be classified into two groups according to their solubility. The first group are reasonably soluble in the dose formulation (>80% of the parent compound in solution, determined by dose analysis pre- and post-centrifugation) and display similar values for %SDiP and %TDiP. The second group are only partially soluble in the dose formulation (<80% of the parent compound in solution) and therefore display greater values for %SDiP compared to %TDiP.

Setting [3] is: other: intratracheal instillation.
The mark [4] stands for this setting: mean (n = 2), range in brackets.
Setting [5] is: solubility in dose vehicle determined post study on a discrete weighing of the compound.

17 molecules from PMC5040732, “Development of a Novel Quantitative Structure-Activity Relationship Model to Accurately Predict Pulmonary Absorption and Replace Routine Use of the Isolated Perfused Respiring Rat Lung Model” (Pharmaceutical Research, 2016) can be followed below.

Marks after values point to notes of the source that are not given here.

What is called half-life is how long it takes for the measured level to halve.

Turning to `Nc1c(Br)cc(Br)cc1CN[C@H]1CC[C@H](O)CC1` [Ambroxol], in data set [1] (setting [3]), the recovery at 20 min is 70% and the half-life was determined as 39 min. Besides, in data set [2], the “% Dose in solution” value was found to be 95%.

As for `N=C(N)NC(=O)c1nc(Cl)c(N)nc1N` [Amiloride], in data set [1] (setting [3]), the recovery at 20 min was 81% and the half-life turned out to be 8 min. Besides, the “% Dose in solution” value in data set [2] is recorded as 100%.

In data set [1] (setting [3]), `CCCC1O[C@@H]2C[C@H]3[C@@H]4CCC5=CC(=O)C=C[C@]5(C)[C@H]4[C@@H](O)C[C@]3(C)[C@]2(C(=O)CO)O1` (stereo partly shown) [Budesonide] yielded a recovery at 20 min of 84% and a half-life of 3.3 min. For the same molecule, in data set [1] (setting [4]), the “%SDiP” value is recorded as 551 (540–561) % and the “%TDiP” value is recorded as 77 (76–79) %. The “%SDiP” value in data set [1] (mean (n = 2), range in brackets, listed as budesonide) is recorded as greater than 100%. Besides, in data set [2], the “% Dose in solution” value is on record as 14%.

In data set [1] (setting [3]), `CC1(C)O[C@@H]2C[C@H]3[C@@H]4C[C@H](F)C5=CC(=O)C=C[C@]5(C)[C@H]4[C@@H](O)C[C@]3(C)[C@]2(C(=O)CO)O1` [Flunisolide] came in with a recovery at 20 min of 139% and a half-life of 15 min. In data set [1] (setting [4]), the “%SDiP” value is 96 (66–126) % and the “%TDiP” value is reported as 41 (28–53) %. For the same molecule, the “%SDiP” value in data set [1] (mean (n = 2), range in brackets, listed as flunisolide) is 100%. For the same molecule, in data set [2], the “% Dose in solution” value is on record as 42%.

Turning to `C[C@@H]1C[C@H]2[C@@H]3C[C@H](F)C4=CC(=O)C=C[C@]4(C)[C@@]3(F)[C@@H](O)C[C@]2(C)[C@@]1(OC(=O)c1ccco1)C(=O)SCF` [Fluticasone Furoate], in data set [1] (setting [3]), the half-life is 153 min. Further, the “%SDiP” value in data set [1] (setting [5]) was 300^c %; in data set [1] (solubility in dose vehicle determined post study on a discrete weighing of the compound, listed as fluticasone furoate) it was greater than 100%. Moreover, the “%TDiP” value in data set [1] (setting [4]) was 10 (7–12) %. Besides, the “% Dose in solution” value in data set [2] is on record as 3.2%.

For `CCC(=O)O[C@]1(C(=O)SCF)[C@H](C)C[C@H]2[C@@H]3C[C@H](F)C4=CC(=O)C=C[C@]4(C)[C@@]3(F)[C@@H](O)C[C@@]21C` [Fluticasone Propionate], the half-life in data set [1] (setting [3]) came out at 115 min. The “%SDiP” value in data set [1] (setting [5]) was 2000^c %; in data set [1] (solubility in dose vehicle determined post study on a discrete weighing of the compound, listed as fluticasone propionate) it was greater than 100%. Besides, the “%TDiP” value in data set [1] (setting [4]) is 10 (10) %. Further, the “% Dose in solution” value in data set [2] came to 0.5%.

For the molecule `COc1ccc(C[C@@H](C)NC[C@H](O)c2ccc(O)c(NC=O)c2)cc1.COc1ccc(C[C@@H](C)NC[C@H](O)c2ccc(O)c(NC=O)c2)cc1.O=C(O)/C=C/C(=O)O` [Formoterol Fumerate], the “Lung T1/2 (mins)” value in data set [1] (lung absorption half-life, mean (n = 2), range in brackets) is given as 24 (22–26) mins. In addition, the “Recovery of total dose (%)” value in data set [1] (only where lung analysis was carried out, mean (n = 2), range in brackets) is given as 73 (70–76) %. Besides, in data set [1] (setting [4]), the “%SDiP” value is reported as 47 (42–52) % and the “%TDiP” value is 47 (42–52) %. The “% Dose in solution” value in data set [2] turned out to be 100%.

In data set [1] (setting [3]), `CCc1cc2c(cc1CC)CC(NC[C@H](O)c1ccc(O)c3[nH]c(=O)ccc13)C2` [Indacaterol] gave a recovery at 20 min of 91% and a half-life of 273 min. In data set [1] (setting [4]), the “%SDiP” value was 12 (12) % and the “%TDiP” value is listed as 11 (10,11) %. The “%SDiP” value in data set [1] (mean (n = 2), range in brackets, listed as indacaterol) was 12%. Further, the “% Dose in solution” value in data set [2] is given as 88%.

For `CC(C)[N+]1(C)[C@@H]2CC[C@H]1C[C@@H](OC(=O)C(CO)c1ccccc1)C2` (stereo partly shown) [Ipratropium Bromide], in data set [2], the “% Dose in solution” value is 100%.

As for `CCN(CC)CC(=O)Nc1c(C)cccc1C` [Lidocaine], the “%SDiP” value in data set [1] (setting [5]) was 75^c %. Besides, the “%TDiP” value in data set [1] (setting [4]) was 75 (64–82) %. In addition, the “% Dose in solution” value in data set [2] is 100%.

Take `CC(C)(O)c1ccccc1CC[C@@H](SCC1(CC(=O)O)CC1)c1cccc(/C=C/c2ccc3ccc(Cl)cc3n2)c1` [Montelukast]: in data set [1] (setting [3]), the recovery at 20 min worked out at 77% and the half-life was 42 min. Besides, in data set [1] (setting [4]), the “%TDiP” value is on record as 67 (57–78) %. The “% Dose in solution” value in data set [2] is given as 73%.

In data set [1] (setting [3]), `CCCc1c2oc(C(=O)O)cc(=O)c2cc2c(=O)cc(C(=O)O)n(CC)c12` [Nedocromil] had a recovery at 20 min of 85% and a half-life of 32 min. For the same molecule, in data set [1] (setting [4]), the “%SDiP” value is 125 (83–166) % and the “%TDiP” value was 32 (23–40) %. Also, the “%SDiP” value in data set [1] (mean (n = 2), range in brackets, listed as nedocromil) is greater than 100%. Also, the “% Dose in solution” value in data set [2] amounted to 24%.

In data set [1] (setting [3]), `CC(C)(C)NCC(O)c1ccc(O)c(CO)c1` (stereo not shown) [Salbutamol] showed a recovery at 20 min of 78%. Also, the “% Dose in solution” value in data set [2] amounted to 55%.

Turning to `OCc1cc(C(O)CNCCCCCCOCCCCc2ccccc2)ccc1O` (stereo not shown) [Salmeterol], in data set [1] (setting [3]), the recovery at 20 min was 69% and the half-life came out at 146 min. In addition, in data set [1] (setting [4]), the “%SDiP” value is 41 (16–66) % and the “%TDiP” value is given as 15 (6–24) %. Further, in data set [2], the “% Dose in solution” value is listed as 36%.

Molecule `C=CC[C@@H]1/C=C(\C)C[C@H](C)C[C@H](OC)[C@H]2O[C@@](O)(C(=O)C(=O)N3CCCC[C@H]3C(=O)O[C@H](/C(C)=C/[C@@H]3CC[C@@H](O)[C@H](OC)C3)[C@H](C)[C@@H](O)CC1=O)[C@H](C)C[C@@H]2OC` [Tacrolimus (prograf), Tacrolimus] showed a half-life in data set [1] (setting [3]) of 28 min. Besides, in data set [1] (setting [4]), the “%SDiP” value is 178 (176–180) % and the “%TDiP” value is 38 (38) %. The “%SDiP” value in data set [1] (mean (n = 2), range in brackets, listed as tacrolimus) is on record as greater than 100%. The “% Dose in solution” value in data set [2] came to 21%.

Turning to `C[N+]1(C)[C@@H]2C[C@@H](OC(=O)C(O)(c3cccs3)c3cccs3)C[C@H]1[C@@H]1O[C@@H]12` [Tiotropium Bromide], the half-life in data set [1] came out at 16 min. Moreover, in data set [1] (setting [4]), the “%TDiP” value is recorded as 61 (59–62) %.

With `CC(=O)N[C@H]1[C@H]([C@H](O)[C@H](O)CO)OC(C(=O)O)=C[C@@H]1N=C(N)N` [Zanamivir], in data set [1] (setting [3]), the recovery at 20 min was determined as 104% and the half-life amounted to 7 min. In data set [1] (setting [4]), the “%TDiP” value is 100 (100–100) %.
